Patent US9976141B2, “Compositions and methods for inhibiting gene expression of Hif2alpha” (Arrowhead Madison Inc., priority 2015, dated 2018)

System: human (tumor) Hif2α (EPAS1) mRNA
Test: Hif2α knockdown in orthotopic RCC tumor bearing mice, single injection of RNAi trigger-delivery polymer conjugate, RT-qPCR (Table 7)
Format: in vivo
Details: single tail vein injection, relative to isotonic glucose
How it was run: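 A single intravenous dose of Hif2α RNAi trigger–delivery polymer conjugate, or isotonic glucose vehicle, was given to nude mice with subcapsular A498-SEAP renal tumours (about 5–6 weeks old). At the indicated time, tumour RNA was assayed by biplex TaqMan qPCR against CycA, and relative expression was calculated by ΔΔCT versus vehicle.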

[1] = RNAi trigger 80 μg, polymer 126 400 μg
[2] = RNAi trigger 50 μg, polymer 064 125 μg

AD01034 (antisense TAAGUUAAGCUCCCAUACATT; sense UGUAUGGGAGCUUAACUUAT; Hif2alpha RNAi agent antisense strand; modified_base 2,4,6,8,10,12,14,16,18 /mod_base = “2′-deoxy-2′-fluoro corresponding nucleoside”; modified_base 3,5,7,9,11,13,15,17,19 /mod_base = “2′-O-methyl corresponding nucleoside”; modified_base 21 /mod_base = “5′-phosphorothioate corresponding nucleotide”; Hif2alpha RNAi agent sense strand; modified_base 1,3,5,7,9,11,13,15,17,19 /mod_base = “2′-deoxy-2′-fluoro corresponding nucleoside”; modified_base 2,4,6,8,10,12,14,16,18 /mod_base = “2′-O-methyl corresponding nucleoside”; modified_base 20 /mod_base = “3′-3′-linked nucleotide”; modified_base 1 /mo)
Relative Expression day 4 (Hif2α mRNA in kidney tumor) [1]: 0.35

AD02733 (antisense UUUCAUGAAAUCGUUACGUUG; sense ACGUAACGAUUUCAUGAAAT; Hif2alpha RNAi agent antisense strand; modified_base 2,4,6,8,10 /mod_base = “2′-deoxy-2′-fluoro corresponding nucleoside”; modified_base 1,3,5,7,9,11,12,13,14,15,16,17,18,19,20,21 /mod_base = “2′-O-methyl corresponding nucleoside”; modified_base 2,3,20,21 /mod_base = “5′-phosphorothioate corresponding nucleotide”; Hif2alpha RNAi agent sense strand; modified_base 7,9 /mod_base = “2′-deoxy-2′-fluoro corresponding nucleoside”; modified_base 1,2,3,4,5,6,8,10,11,12,13,14,15,16,17,18,19 /mod_base = “2′-O-methyl corresponding nucleoside”; modified_base 20 /mod_base = “3′-3′-linked nucleotide”; modi)
Relative Expression day 4 (Hif2α mRNA in kidney tumor) (RNAi trigger 75 μg, polymer 064 187.5 μg): 0.283

AD02862 (antisense AUUCAUGAAAUCGUUACGUUG; sense UAUACGUAACGAUUUCAUGAAUT; Hif2alpha RNAi agent antisense strand; modified_base 2,4,6,8,10,14,16,18 /mod_base = “2′-deoxy-2′-fluoro corresponding nucleoside”; modified_base 1,3,5,7,9,11,12,13,15,17,19,20,21 /mod_base = “2′-O-methyl corresponding nucleoside”; modified_base 2,3,20,21 /mod_base = “5′-phosphorothioate corresponding nucleotide”; Hif2alpha RNAi agent sense strand; modified_base 2 modified base = “2′-hydroxy corresponding nucleoside”; modified_base 6,8,10,11,12,16,18,20 /mod_base = “2′-deoxy-2′-fluoro corresponding nucleoside”; modified_base 1,3,4,5,7,9,13,14,15,17,19,21,22 /mod_base = “2′-O-methyl correspon)
Relative Expression day 4 (Hif2α mRNA in kidney tumor) [2]: 0.093

AD03256 (antisense AUUCAUGAAAUCGUUACGUUGAT; sense AACGUAACGAUUUCAUGAAUT; Hif2alpha RNAi agent antisense strand; modified_base 2,4,6,8,14 /mod_base = “2′-deoxy-2′-fluoro corresponding nucleoside”; modified_base 1,3,5,7,9,10,11,12,13,15,16,17,18,19,20,21,22 /mod_base = “2′-O-methyl corresponding nucleoside”; modified_base 23 /mod_base = “3′-3′-linked nucleotide”; modified_base 2,3,22,23 /mod_base = “5′-phosphorothioate corresponding nucleotide”; Hif2alpha RNAi agent sense strand; modified_base 8,9,10 /mod_base = “2′-deoxy-2′-fluoro corresponding nucleoside”; modified_base 1,2,3,4,5,6,7,11,12,13,14,15,16,17,18,19,20 /mod_base = “2′-O-methyl corresponding nucleoside”)
Relative Expression day 4 (Hif2α mRNA in kidney tumor) [2]: 0.333

AD01555 (antisense TUUCAUGAAAUCGUUACGUTT; sense ACGUAACGAUUUCAUGAAAT; Hif2alpha RNAi agent antisense strand; modified_base 2,4,6,8,10,14,16,18 /mod_base = “2′-deoxy-2′-fluoro corresponding nucleoside”; modified_base 3,5,7,9,11,12,13,15,17,19 /mod_base = “2′-O-methyl corresponding nucleoside”; modified_base 2,3,21 /mod_base = “5′-phosphorothioate corresponding nucleotide”; Hif2alpha RNAi agent sense strand; modified_base 1,3,5,7,8,9,11,13,15,17,19 /mod_base = “2′-deoxy-2′-fluoro corresponding nucleoside”; modified_base 2,4,6,10,12,14,16,18 /mod_base = “2′-O-methyl corresponding nucleoside”; modified_base 20 /mod_base = “3′-3′-linked nucleotide”; modified_base 1)
Relative Expression day 4 (Hif2α mRNA in kidney tumor) (RNAi trigger 115 μg, polymer 100A 375 μg): 0.20

AD03253 (antisense UUUCAUGAAAUCGUUACGUUG; sense ACGUAACGAUUUCAUGAAAT; Hif2alpha RNAi agent antisense strand; modified_base 2,4,6,8,14 /mod_base = “2′-deoxy-2′-fluoro corresponding nucleoside”; modified_base 1,3,5,7,9,10,11,12,13,15,16,17,18,19,20,21 /mod_base = “2′-O-methyl corresponding nucleoside”; modified_base 2,3,20,21 /mod_base = “5′-phosphorothioate corresponding nucleotide”; Hif2alpha RNAi agent sense strand; modified_base 7,8,9 /mod_base = “2′-deoxy-2′-fluoro corresponding nucleoside”; modified_base 1,2,3,4,5,6,10,11,12,13,14,15,16,17,18,19 /mod_base = “2′-O-methyl corresponding nucleoside”; modified_base 20 /mod_base = “3′-3′-linked nucleotide”; modi)
Relative Expression day 4 (Hif2α mRNA in kidney tumor) [2]: 0.188

AD01657 (antisense TUUCAUGAAAUCGUUACGUTT; sense ACGUAACGAUUUCAUGAAAT; Hif2alpha RNAi agent antisense strand; modified_base 2,4,6,8,10,12,14,15,18 /mod_base = “2′-deoxy-2′-fluoro corresponding nucleoside”; modified_base 3,5,7,9,11,13,16,17,19 /mod_base = “2′-O-methyl corresponding nucleoside”; modified_base 2,21 /mod_base = “5′-phosphorothioate corresponding nucleotide”; Hif2alpha RNAi agent sense strand; modified_base 1,3,4,7,9,11,13,15,17,19 /mod_base = “2′-deoxy-2′-fluoro corresponding nucleoside”; modified_base 2,5,6,8,10,12,14,16,18 /mod_base = “2′-O-methyl corresponding nucleoside”; modified_base 20 /mod_base = “3′-3′-linked nucleotide”; modified_base 1 /)
Relative Expression day 4 (Hif2α mRNA in kidney tumor) (RNAi trigger 100 μg, polymer 100A 250 μg): 0.256

AD01021 (antisense TGUAAAACAAUUGUGUACUTT; sense AGUACACAAUUGUUUUACAT; Hif2alpha RNAi agent antisense strand; modified_base 2,4,6,8,10,12,14,16,18 /mod_base = “2′-deoxy-2′-fluoro corresponding nucleoside”; modified_base 3,5,9,11,13,15,17,19 /mod_base = “2′-O-methyl corresponding nucleoside”; modified_base 7 /mod_base = “2′-3′ seco corresponding nucleotide”; modified_base 21 /mod_base = “5′-phosphorothioate corresponding nucleotide”; Hif2alpha RNAi agent sense strand; modified_base 1,3,5,7,9,11,13,15,17,19 /mod_base = “2′-deoxy-2′-fluoro corresponding nucleoside”; modified_base 2,4,6,8,10,12,14,16,18 /mod_base = “2′-O-methyl corresponding nucleoside”; modified_b)
Relative Expression day 4 (Hif2α mRNA in kidney tumor) [1]: 0.90

AD03190 (antisense AGUAAAACAAUUGUGUACUUUAA; sense AAAGUACACAAUUGUUUUACT; Hif2alpha RNAi agent antisense strand; modified_base 2,4,6,8,10,14,16,18 /mod_base = “2′-deoxy-2′-fluoro corresponding nucleoside”; modified_base 1,3,5,7,9,11,12,13,15,17,19,20,21,22,23 /mod_base = “2′-O-methyl corresponding nucleoside”; modified_base 2,3,22,23 /mod_base = “5′-phosphorothioate corresponding nucleotide”; Hif2alpha RNAi agent sense strand; modified_base 3,5,7,9,10,11,13,15,19 /mod_base = “2′-deoxy-2′-fluoro corresponding nucleoside”; modified_base 1,2,4,6,8,12,14,16,17,18,20 /mod_base = “2′-O-methyl corresponding nucleoside”; modified_base 21 /mod_base = “3′-3′-linked nucleoti)
Relative Expression day 4 (Hif2α mRNA in kidney tumor) [2]: 0.269
